# Data published in US20250064724A1, “MODULAR FIELD-STABLE BIO-ARTIFICIAL BLOOD SUBSTITUTE” (VIRGINIA COMMONWEALTH UNIVERSITY, priority 2021, published 2025).
# Assays:
# shocked rats [1] = assay: Example 3: PEG-20 k and delayed or nitric oxide modified HBOC in rodent lethal hemorrhagic shock; type: in vivo, rat; conditions: Example 3, present tense
# Protocol: Rats are bled to 35 mmHg and held there until lactate reaches 9-10 mM, at which time, LVR solutions are given to resuscitate them. Thirty minutes after resuscitation, another 10% blood volume is removed and the plasma component is immediately separated and given back. A loop of distal ileum is exposed and a 1 cm enterotomy is made along the anti-mesenteric border to access the mucosal surface for hourly recordings of capillary blood flow by Orthogonal Polarization Spectral Imaging (OPSI) and for biopsies of bowel mucosa at various times before. The biopsies are used for histological analysis and for nitric oxide metabolism studies ex-vivo in a tissue culture system.
# The albumin solution is a control for both the protein and oncotic effects of the HBOC per se and for the delayed volume administration at 2 and 4 hours after the initial PEG-20 k resuscitation. The total volume infusions for these studies is maintained at 6.8 ml/kg to remain in the low volume range (10% estimated blood volume). All surgical preparations are sterile so any animals surviving after 5 hours from resuscitation can be recovered the next day. N=10 rats per group. […]
# In both Part 1 and Part 2, the primary measured outcomes include the rate of oxygen debt repayment on the first operative day and the re-accumulation of new oxygen debt the following days in rats that survive the initial 5-hour intra-operative observation period. […] Other secondary outcomes measured in each experiment include MAP, blood labs, intestinal microcirculation measured with orthogonal polarization spectral imaging (OPSI) through a small enterotomy in the distal ileum, plasma Th1 cytokines, terminal bowel histology analysis, and subject survival time. Finally, local tissue production of nitric oxide, nitrosothiols, and nitric oxide metabolites is assessed from serial bowel mucosa biopsies using incubations of tissue in a Dubanoff metabolic incubator and a Sievers-Style chemiluminescence NO analyzer.
# [2] = tested on: nitric oxide synthase (NOS); conditions: cited from earlier work; for blockade of the L-Arginine effect in crystalloid resuscitation: competitive NOS inhibitors
# anesthetized rats [3] = conditions: 300 mg/kg L-Arginine with 6.8 ml/kg HBOC-201 IV, listed as L-Arg
# From the text: This hypertension is believed due to the local scavenging of nitric oxide in the vessel wall. As the normal vasodilator tone produced by basal nitric oxide is removed by the HBOC hemoglobin, the vasoconstrictor tone now prevails and the blood pressure rises secondary to vasoconstriction of the resistance vessels.
# Studies were designed to test how nitric oxide substrate loading before HBOC prevents or attenuates the NO scavenging effects of the HBOC on physiological, biochemical, and survival outcomes.
# anesthetized rats [4] = conditions: literature reference (22); cited from earlier work
# shocked rats [5] = assay: Example 4: fibrinogen add back after PEG-20 k resuscitation, controlled and uncontrolled hemorrhage in rats; type: in vivo, rat; conditions: fibrinogen after PEG-20 k IV solution, controlled or uncontrolled hemorrhagic shock
# Protocol: Changes in coagulation and platelet function is measured in the controlled lethal shock model in adult anesthetized rats in groups that receive PEG-20 k IV solution alone and those that receive PEG-20 k IV solution and supplemental human fibrinogen (200 mg/kg, IV, in 300 μl LR). The control group also receives 300 ul LR without RiaSTAP®. Samples of whole rat blood (1.0-ml) are taken at baseline and at various times after resuscitation for thromboelastography (TEG) analysis of coagulation and platelet function. Other assays are done to measure fibrinogen levels, intrinsic and extrinsic coagulation pathway coagulation, and platelet mapping studies are conducted to answer some mechanistic questions about platelet function defects. Samples are collected out to 4 hours, which is the time when coagulation and platelet function begins to return to baseline levels after PEG-20 k resuscitation. Each group uses 10 adult Sprague-Dawley rats.
# Coagulation and platelet function outcomes are tested by using a clinically relevant model of mixed polytrauma hemorrhagic shock that involves severe bleeding from both controllable and uncontrollable sources. Our lab has developed a rodent model of severe hemorrhagic shock where tail bleeding (controlled source) is combined with blood loss from an abdominal penetrating injury to the spleen (splenic laceration). […]
# [6] = tested on: platelet IIb/IIIa receptor; conditions: in vivo
# From the text: The hypocoagulable state and functional hypofibrinogenemia that exists immediately after severe blood loss and PEG-20 k resuscitation is mitigated by the concurrent addition of reconstituted lyophilized human fibrinogen (RiaSTAP®). The effects of severe blood loss after hemorrhage leads to direct depletion of clotting factors including fibrinogen. Furthermore, resuscitation with PEG-20 k IV solution causes rapid and long acting volume expansion by the osmotic movement of isotonic fluid from the intracellular and interstitial spaces back into the intravascular space, which further dilutes fibrinogen concentrations. […] Together, these forces tend to dilute out plasma fibrinogen concentrations that likely contribute to both the transient hypocoagulable state and the functional hypofibrinogenemia seen after PEG-20 k resuscitation in severe blood loss. Therefore, it makes sense that a simple add back of fibrinogen to the system after PEG-20 k IV solution resuscitation will correct the defect and improve coagulation and platelet function. […]
# Changes in coagulation and platelet function is measured in the controlled lethal shock model in adult anesthetized rats in groups that receive PEG-20 k IV solution alone and those that receive PEG-20 k IV solution and supplemental human fibrinogen (200 mg/kg, IV, in 300 μl LR). […]
molecule,measurement,setting,value
N=C(N)NCCC[C@@H](N)C(=O)O (racemic) [D-Arginine],blockade of the L-Arginine effect with HBOC,shocked rats [1],this effect is blocked
same,blockade of the L-Arginine effect in crystalloid resuscitation,[2],blocked
N=C(N)NCCC[C@H](N)C(=O)O [L-Arginine],effect of co-administered L-Arginine on the blood pressure response to HBOC,anesthetized rats [3],caused vasodilatation that caused the blood pressure to drop
same,resuscitation outcome with L-Arginine before HBOC,shocked rats [1]; after PEG-20 k,Improvements are seen
same,crystalloid resuscitation outcome with L-Arginine,"[2]; severe hemorrhagic shock, earlier work of the lab (20)",dramatically improved
"COC(=O)[C@@H](N)CCCNC(=N)N[N+](=O)[O-] [L-NAME, L-Nitro Arginine Methyl Ester]",blockade of the L-Arginine effect with HBOC,shocked rats [1],this effect is blocked
same,blockade of the L-Arginine effect in crystalloid resuscitation,[2],blocked
same,reversal of the L-Arg blood pressure effect by nitric oxide synthetase inhibitor,anesthetized rats [4],reversal
fibrinogen,"coagulation outcomes, bleeding times and volumes",shocked rats [5],reduces bleeding
same,"coagulation outcomes, bleeding times and volumes",shocked rats [5]; listed as concentrated fibrinogen,significantly improves coagulation outcomes and decreases uncontrolled bleeding times and volumes
polyethylene glycol [PEG-20 k],coagulopathy on TEG,[6],minor coagulopathy on TEG
same,time when coagulation and platelet function begins to return to baseline levels,[6],4 h
